Converted amounts (≈) assume the structure as drawn. “And” between values parts separate entries of the source, which are not always exact repeats. Equal values may be shown once. Read-outs that look alike come from different tables or passages of the source. Non-standard residues stand in square brackets, D forms with d. Residues, ends and D or L forms follow the SMILES beside them. No end group written: not given here.
Experiments:
[1] = in vitro; conditions: 25% fetal bovine serum
Description: To determine its proteolytic stability, it was assessed whether (ri)-r(P)ApoBS^Pro was less susceptible to serum proteases compared to its parent peptide r(P)ApoBS^Pro.
Stability assay. The resistance to enzymatic degradation assay was performed according to the method described by Powell et al. ^72 Briefly, peptides at 2 mg mL^−1 were exposed to a solution of 25% fetal bovine serum in water. Aliquots were collected after 0.5, 1, 2, and 4 h and 10 μL of trifluoroacetic acid was added to them while the samples were on ice for 10 min. The enzymatic degradation of peptides was followed by reverse-phase high performance liquid chromatography coupled to mass spectrometry (RP-HPLC/ESI-MS). The percentage of remaining peptide was calculated by integrating the area under the curve related to the peptide at time point zero.
where AUCX is the area under the curve of the peak related to the peptide after t h (t=0.5, 1, 2, and 4 h), and AUC0 is the area under the curve of the peak related to the peptide at the beginning of the experiment. Three independent experimental replicates were performed, as previously described. ^73

[2] = system: E. faecalis ATCC 29212
Description: (§1) Antimicrobial activity. The antimicrobial activity of ApoB-derived encrypted peptides was assessed against a panel of skin pathogens, such as S. epidermidis ATCC 35984, S. aureus ATCC 12600, A. baumannii ATCC 17878, K. pneumoniae ATCC 700603, S. aureus MRSA (WK7-2), E. faecalis ATCC 29212 and P. aeruginosa PAO1 by using the broth microdilution method. ^20 Bacteria were grown to mid-logarithmic phase in MHB at 37° C. […] Following incubation over-night, each sample was diluted, plated on TSA, and incubated at 37° C. for 24 h to count the number of colonies. All experiments were performed in three independent replicates.

[3] = system: S. aureus MRSA (WKZ-2)
Description: as §1

[4] = system: P. aeruginosa wild-type PAO1
Description: as §1

[5] = system: K. pneumoniae ATCC 700603; experiment: microbe, parasite or virus in culture; conditions: for MIC values: conventional antimicrobial agents, Klebsiella pneumoniae ATCC 700603
Description: as §1

[6] = system: S. epidermidis ATCC 35984; experiment: microbe, parasite or virus in culture; conditions: for MIC values: conventional antimicrobial agents, Staphylococcus epidermidis ATCC 35984
Description: as §1

[7] = system: S. aureus ATCC 12600; experiment: microbe, parasite or virus in culture; conditions: for MIC values: conventional antimicrobial agents, Staphylococcus aureus ATCC 12600
Description: as §1

[8] = system: A. baumannii ATCC 17878; experiment: microbe, parasite or virus in culture; conditions: for MIC values: conventional antimicrobial agents, Acinetobacter baumannii ATCC 17878
Description: as §1

[9] = system: A. baumannii ATCC 17878; experiment: Bacterial resistance development assay (30 days); type: cell-based, Acinetobacter baumannii; conditions: for MIC: Acinetobacter baumannii; for change in MIC (resistance development): 30 days of treatment
Description: (§2) Experiments were performed to assess whether prolonged exposure to ApoB-derived encrypted peptides led to the evolution of resistant phenotypes, since classical AMPs are known to be less likely to trigger bacterial resistance than standard antibiotics. ^41 The Gram-negative bacterial pathogen A. baumannii ATCC 17878, and the Gram-positives S. epidermidis ATCC 35984, and S. aureus ATCC 12600 were longitudinally treated with r(P)ApoBL^Pro, r(P)ApoBL^Ala, and r(P)ApoBS^Pro. Control sample groups were treated with the antibiotics colistin, gentamicin, and mupirocin, selected based on their distinct mechanisms of action, the former destabilizing the bacterial extracellular membrane and the latter acting on intracellular targets. […] A. baumannii resistance towards colistin increased by up to 8-fold, whereas S. epidermidis resistance to gentamicin and mupirocin increased by up to 16- and 8-fold, respectively (FIG. 3C). […] For example, both colistin-resistant A. baumannii ATCC 17878 and gentamicin-resistant S. epidermidis ATCC 35984 presented wrinkled borders (FIG. 2E) as opposed to the smooth colonies' characteristic of their morphology at the beginning of the experiment (FIG. 2E).
(§3) Bacterial resistance development assay. S. epidermidis ATCC 35984, S. aureus ATCC 12600 and A. baumannii ATCC 17878 bacterial strains were exposed to colistin, gentamicin, mupirocin, r(P)ApoBL^Pro, r(P)ApoBL^Ala or r(P)ApoBS^Pro. Once, we detected the MIC values for each peptide or antibiotic against the bacterial strains tested, we transferred bacterial cells that survived the exposure at a sub-inhibitory (MIC/2) concentration, and they were re-grown and re-exposed to the respective peptide or antibiotic. ^20 The treatment was repeated for 30 days. Strains that developed resistance to antibiotics presented higher MICs at subsequent passages and the cells from the last passage were isolated and stored for scanning electron microscopy analyses.

[10] = system: S. epidermidis ATCC 35984; experiment: Bacterial resistance development assay (30 days); type: cell-based, Staphylococcus epidermidis; conditions: for change in MIC (resistance development): S. epidermidis, 30 days of treatment; for MIC: Staphylococcus epidermidis
Description: as §2, §3

[11] = system: S. aureus ATCC 12600; experiment: Bacterial resistance development assay (30 days); type: cell-based, Staphylococcus aureus
Description: as §2, §3

[12] = Klebsiella pneumoniae, ATCC700603, read-out: MIC values
[13] = Staphylococcus aureus, ATCC12600, read-out: MIC values
[14] = Acinetobacter baumannii, ATCC17878, read-out: MIC values
[15] = Staphylococcus epidermidis, ATCC35984, read-out: MIC values

## PHVALKAGKLKFIIPSPKRPVKLLSGGNTLHLVSTTKT [r(P)ApoBL^Ala]
[1]
  stability in the presence of serum: degraded within minutes
[2]
  MIC: 10 µM
[3]
  MIC: 10 µM
[4]
  MIC: 2.5 µM
[5]; ATCC 700603
  MIC: 5 µM
[6]; ATCC 35984
  MIC: 10 µM
[7]; ATCC 12600
  MIC: 20 µM
[8]; ATCC 17878
  MIC: 2.5 µM

## CC[C@H]1OC(=O)[C@H](C)[C@@H](O[C@H]2C[C@@](C)(OC)[C@@H](O)[C@H](C)O2)[C@H](C)[C@@H](O[C@@H]2O[C@H](C)C[C@H](N(C)C)[C@H]2O)[C@](C)(O)C[C@@H](C)C(=O)[C@H](C)[C@@H](O)[C@]1(C)O [Erytromycin]
[5]; [12]
  MIC: 7.8 µg/mL
[6]
  MIC values: Resistant
[7]; [13]
  MIC: 15 µg/mL
[8]; [14]
  MIC: 125 µg/mL

## C/C(=C\C(=O)OCCCCCCCCC(=O)O)C[C@@H]1OC[C@H](C[C@@H]2O[C@H]2[C@@H](C)[C@H](C)O)[C@@H](O)[C@H]1O [mupirocin]
[9]; ATCC17878, read-out: MIC after 30 days of treatment
  MIC: 400 µg/mL and 800 µM
[9]; ATCC17878, read-out: MIC at start of resistance study
  MIC: 100 µg/mL and 200 µM
[10]
  change in MIC (resistance development): up to 8 fold
[10]; ATCC35984, read-out: MIC after prolonged treatment
  MIC: 0.012 µg/mL and 0.024 µM
[10]; ATCC35984, read-out: MIC at start of resistance study
  MIC: 0.0015 µg/mL and 0.003 µM
[11]; before the increase
  MIC before increase: 0.024 μg mL^−1 and 0.048 μmol L^−1
[11]; between days 15 and 21 of treatment
  MIC after increase: 0.19 μg mL^−1 and 0.38 μmol L^−1
[11]; prolonged treatment
  change in MIC (resistance development): 8 fold

## CCC[C@@H]1C[C@@H](C(=O)N[C@@H]([C@H]2O[C@H](SC)[C@H](O)[C@@H](O)[C@H]2O)[C@H](C)Cl)N(C)C1 [Clindamycin]
[5]; [12]
  MIC: 125 µg/mL
[7]; [13]
  MIC: 0.5 µg/mL
[8]; [14]
  MIC: 62.5 µg/mL

## CN[C@H](CC(C)C)C(=O)N[C@H]1C(=O)N[C@@H](CC(N)=O)C(=O)N[C@H]2C(=O)N[C@H]3C(=O)N[C@H](C(=O)N[C@H](C(=O)O)c4cc(O)cc(O)c4-c4cc3ccc4O)[C@H](O)c3ccc(c(Cl)c3)Oc3cc2cc(c3O[C@@H]2O[C@H](CO)[C@@H](O)[C@H](O)[C@H]2O[C@H]2C[C@](C)(N)[C@H](O)[C@H](C)O2)Oc2ccc(cc2Cl)[C@H]1O [Vancomycin]
[5]; [12]
  MIC: 50 µg/mL
[6]; [15]
  MIC: 1.56 µg/mL
[7]; [13]
  MIC: 0.78 µg/mL
[8]; [14]
  MIC: 50 µg/mL

## PHVALKPGKLKFIIPSPKRPVKLLSGGNTLHLVSTTKT [r(P)ApoBL^Pro]
[1]
  stability in the presence of serum: degraded within minutes
[2]
  MIC: 20 µM
[3]
  MIC: 20 µM
[4]
  MIC: 5 µM
[5]; ATCC 700603
  MIC: 10 µM
[6]; ATCC 35984
  MIC: 10 µM
[7]; ATCC 12600
  MIC: 20 µM
[8]; ATCC 17878
  MIC: 5 µM

## Polymyxin B
[5]
  MIC values: 6.25 µg/mL
[6]
  MIC values: 3.12 µg/mL
[7]
  MIC values: 12.5 µg/mL
[8]
  MIC values: 6.25 µg/mL

## Colistin
[9]; A. baumannii
  change in MIC (resistance development): up to 8 fold
  MIC after 30 days of treatment: 25 µg/mL
[9]; A. baumannii, listed as colistin
  MIC after 30 days of treatment: 21.6 µM
[9]; A. baumannii, before prolonged treatment
  MIC at start of resistance study: 3.12 μg mL^−1 and 2.7 μmol L^−1
[10]
  change in MIC (resistance development): No significant resistance development
[5]
  MIC values: 3.12 µg/mL
[6]
  MIC values: 3.12 µg/mL
[7]
  MIC values: 12.5 µg/mL
[8]
  MIC values: 3.12 µg/mL

## O=C(O)CN(CCN(CC(=O)O)CC(=O)O)CC(=O)O [EDTA]
[5]
  MIC values: 49 µg/mL (≈ 168 µM)
[6]
  MIC values: 196 µg/mL (≈ 671 µM)
[7]
  MIC values: 24.5 µg/mL (≈ 83.8 µM)
[8]
  MIC values: 24.5 µg/mL (≈ 83.8 µM)

## CC[C@@H](C)[C@@H](NC(=O)[C@H]1CCCN1C(=O)[C@@H](CO)NC(=O)[C@H]1CCCN1C(=O)[C@@H](CCCCN)NC(=O)[C@@H](CCCNC(=N)N)NC(=O)[C@H]1CCCN1C(=O)[C@H](NC(=O)[C@@H](CCCCN)NC(=O)[C@@H](CC(C)C)NC(=O)[C@@H](CC(C)C)NC(=O)[C@@H](CO)NC(=O)CN)C(C)C)C(=O)N[C@@H](C(=O)N[C@H](Cc1ccccc1)C(=O)N[C@H](CCCCN)C(=O)N[C@H](CC(C)C)C(=O)N[C@H](CCCCN)C(=O)NCC(=O)N1CCC[C@@H]1C(=O)N[C@H](CCCCN)C(=O)N[C@H](CC(C)C)C(=O)N[C@H](C)C(=O)N[C@@H](C(=O)N[C@H](Cc1c[nH]cn1)C(=O)N1CCC[C@@H]1C(=O)O)C(C)C)[C@H](C)CC [(ri)-r(P)ApoBS^Pro] (H-G[dS][dL][dL][dK][dV][dP][dR][dK][dP][dS][dP][dI][dI][dF][dK][dL][dK]G[dP][dK][dL][dA][dV][dH][dP]-OH; N-terminus and C-terminus assumed)
[1]; bovine
  remaining at 4 h, 2 mg mL^-1: ~50%
[3]
  MIC: 10 µM (≈ 28.2 µg/mL)
[4]
  MIC: 10 µM (≈ 28.2 µg/mL)
[6]; ATCC 35984
  MIC: 10 µM
[7]; ATCC 12600
  MIC: 20 µM

## Gentamicin
[9]; A. baumannii
  change in MIC (resistance development): did not change
[10]
  change in MIC (resistance development): up to 16 fold
[5]
  MIC values: 0.5 µg/mL
[6]
  MIC values: 2 µg/mL
[7]
  MIC values: 1 µg/mL
[8]
  MIC values: 0.25 µg/mL

## O=C(OOC(=O)c1ccccc1)c1ccccc1 [Benzoyl Peroxide]
[5]
  MIC values: Resistant
[6]; [15]
  MIC: 16 µg/mL
[7]; [13]
  MIC: 16 µg/mL
[8]; [14]
  MIC: 32 µg/mL

## CC(=O)O[C@H]1C[C@@]2(C)[C@@H](C[C@@H](O)[C@H]3[C@@]4(C)CC[C@@H](O)[C@@H](C)[C@@H]4CC[C@@]32C)/C1=C(\CCC=C(C)C)C(=O)O [Fusidic acid]
[5]
  MIC values: Resistant
[6]; [15]
  MIC: 0.06 µg/mL
[7]; [13]
  MIC: 0.06 µg/mL
[8]; [14]
  MIC: 2.25 µg/mL
